# Reference: ChEMBL document CHEMBL1127503, “3'-(Arylmethyl)- and 3'-(aryloxy)-3-phenyl-4-hydroxyquinolin-2(1H)-ones: orally active antagonists of the glycine site on the NMDA receptor” (J Med Chem, 1994)
# Assays:
# [1] = target: Glutamate receptor ionotropic, NMDA 1 (Rattus norvegicus, UniProt P35439); test: Inhibition of the binding of [3H]L-689,560 ([3H]-4) to the strychnine-insensitive glycine site on rat brain membranes; format: cell membranes, Membrane
# [2] = test system: Mus musculus; test: Protection from audiogenic seizure in the DBA/2 mouse 30 min after intraperitoneal administration; format: functional; conditions: ip, 0.5 h
# [3] = species: Rattus norvegicus; test: Blockade of NMDA-induced depolarizations on rat cortical slices; format: functional
# [4] = test system: Mus musculus; test: Protection from audiogenic seizure in the DBA/2 mouse 30 min after oral administration; format: functional; conditions: 0.5 h
# [5] = test system: Mus musculus; test: Protection from audiogenic seizure in the DBA/2 mouse 10 min after intraperitoneal administration; format: functional; conditions: ip
Structure (SMILES),IC50 [1] [nM],ED50 [2] [mg/kg],Kb [3] [nM],ED50 [4] [mg/kg],ED50 [5] [mg/kg]
O=C(Nc1ccccc1)N[C@H]1C[C@H](C(=O)O)Nc2cc(Cl)cc(Cl)c21,4,> 100,110,–,–
Oc1nc2cc(Cl)ccc2c(O)c1-c1cccc(Cc2ccccc2)c1,–,–,87,3.9,1.3
O=C(O)CCc1c(C(=O)O)[nH]c2cc(Cl)cc(Cl)c12,69,> 100,1320,–,–
Oc1nc2cc(Cl)ccc2c(O)c1-c1cccc(Cc2ccsc2)c1,2.3,1.5,19,5.1,–
COc1ccc(Cc2cccc(-c3c(O)c4ccc(Cl)cc4[nH]c3=O)c2)cc1,4.5,0.7,25,0.9,–
Oc1nc2cc(Cl)ccc2c(O)c1-c1cccc(Oc2ccsc2)c1,1.4,0.8,5,0.8,–
O=c1[nH]c2cc(Cl)ccc2c(O)c1-c1cccc(Oc2ccccc2)c1,2,0.9,28,0.9,–
COCOc1ccc(Cc2cccc(-c3c(O)nc4cc(Cl)ccc4c3O)c2)cc1,2.2,0.5,3.2,0.9,–
O=C(O)c1cc(O)c2c(I)cc(Cl)cc2n1,14,> 250,410,–,–
O=c1[nH]c2cc(Cl)ccc2c(O)c1-c1ccccc1,170,4.5,880,7.6,–
